{"source": "PubChem BioAssay AID248", "about": "(DTP/NCI, 2004)", "test_system": "L1210 leukemia ip in BDF1 mice, survival T/C", "assay": "NCI In Vivo Anticancer Drug Screen. Data for tumor model L1210 Leukemia (intraperitoneal) in B6D2F1 (BDF1) mice", "conditions": "endpoint: mean survival time, higher = longer survival", "outline": "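Read-out is survival time, reported as the treated-group measurement over the vehicle-control measurement.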", "key": {"[1]": {"conditions": "dose: 100.0 mg/kg/injection, schedule: Q04DX003 (ip), vehicle: Klucel (hydroxypropylcellulose) (HPC)"}, "[2]": {"conditions": "dose: 200.0 mg/kg/injection, schedule: Q04DX003 (ip), vehicle: Klucel (hydroxypropylcellulose) (HPC)"}, "[3]": {"conditions": "dose: 400.0 mg/kg/injection, schedule: Q04DX003 (ip), vehicle: Klucel (hydroxypropylcellulose) (HPC)"}, "[4]": {"conditions": "dose: 50.0 mg/kg/injection, schedule: Q01DX001 (ip), vehicle: saline"}, "[5]": {"conditions": "dose: 100.0 mg/kg/injection, schedule: Q01DX001 (ip), vehicle: saline"}, "[6]": {"conditions": "dose: 200.0 mg/kg/injection, schedule: Q01DX001 (ip), vehicle: saline"}, "[7]": {"conditions": "dose: 400.0 mg/kg/injection, schedule: Q01DX001 (ip), vehicle: saline"}, "[8]": {"conditions": "dose: 100.0 mg/kg/injection, schedule: Q01DX009 (ip), vehicle: Klucel (hydroxypropylcellulose) (HPC)"}, "[9]": {"conditions": "dose: 200.0 mg/kg/injection, schedule: Q01DX009 (ip), vehicle: Klucel (hydroxypropylcellulose) (HPC)"}, "[10]": {"conditions": "dose: 400.0 mg/kg/injection, schedule: Q01DX009 (ip), vehicle: Klucel (hydroxypropylcellulose) (HPC)"}}, "note": "Where “and” joins values, the source holds several entries; their conditions need not be identical. Equal values may be shown once. Toxic doses and inconclusive results are not listed."}
{"smiles": "CCOC(=O)C(Br)c1cccc(OC)c1", "note": "(stereo not given)", "values": [{"measurement": "T/C", "setting": "dose: 100.0 mg/kg/injection, schedule: Q01DX009 (ip), vehicle: saline sonified", "result": "107 % of control"}, {"measurement": "T/C", "setting": "dose: 100.0 mg/kg/injection, schedule: Q04DX003 (ip), vehicle: saline sonified", "result": "117 % of control"}, {"measurement": "T/C", "setting": "dose: 132.0 mg/kg/injection, schedule: Q04DX003 (ip), vehicle: saline sonified", "result": "104 % of control"}, {"measurement": "T/C", "setting": "dose: 200.0 mg/kg/injection, schedule: Q01DX009 (ip), vehicle: saline sonified", "result": "96 % of control"}, {"measurement": "T/C", "setting": "dose: 200.0 mg/kg/injection, schedule: Q04DX003 (ip), vehicle: saline sonified", "result": "96 % of control"}, {"measurement": "T/C", "setting": "dose: 300.0 mg/kg/injection, schedule: Q04DX003 (ip), vehicle: saline sonified", "result": "89 % of control"}, {"measurement": "T/C", "setting": "dose: 400.0 mg/kg/injection, schedule: Q01DX009 (ip), vehicle: saline sonified", "result": "98 % of control"}, {"measurement": "T/C", "setting": "dose: 400.0 mg/kg/injection, schedule: Q04DX003 (ip), vehicle: saline sonified", "result": "106 % of control"}]}
{"smiles": "Nc1[nH]c(=S)ncc1-c1ccc(Cl)c(Cl)c1", "values": [{"measurement": "T/C", "setting": "[1]", "result": "101 % of control"}, {"measurement": "T/C", "setting": "[2]", "result": "97 % of control"}, {"measurement": "T/C", "setting": "[3]", "result": "93 % of control"}]}
{"smiles": "S=C1N(C2CCCCC2)CCN1C1CCCCC1", "values": [{"measurement": "T/C", "setting": "dose: 100.0 mg/kg/injection, schedule: Q04DX002 (ip), vehicle: Klucel (hydroxypropylcellulose) (HPC)", "result": "97 % of control"}]}
{"smiles": "C(=N\\n1cnnc1)/c1ccccc1/C=N/n1cnnc1", "values": [{"measurement": "T/C", "setting": "dose: 100.0 mg/kg/injection, schedule: Q01DX009 (ip), vehicle: saline with Tween-80", "result": "116 % of control"}, {"measurement": "T/C", "setting": "dose: 100.0 mg/kg/injection, schedule: Q04DX003 (ip), vehicle: saline with Tween-80", "result": "103 % of control"}, {"measurement": "T/C", "setting": "dose: 200.0 mg/kg/injection, schedule: Q01DX009 (ip), vehicle: saline with Tween-80", "result": "96 % of control"}, {"measurement": "T/C", "setting": "dose: 200.0 mg/kg/injection, schedule: Q04DX003 (ip), vehicle: saline with Tween-80", "result": "100 % of control"}, {"measurement": "T/C", "setting": "dose: 400.0 mg/kg/injection, schedule: Q01DX009 (ip), vehicle: saline with Tween-80", "result": "89 % of control"}, {"measurement": "T/C", "setting": "dose: 400.0 mg/kg/injection, schedule: Q04DX003 (ip), vehicle: saline with Tween-80", "result": "89 % of control"}]}
{"smiles": "C=[CH][Sn]([CH]=C)([CH]=C)[O]C(C)=O", "values": [{"measurement": "T/C", "setting": "dose: 1.56 mg/kg/injection, schedule: Q01DX009 (ip), vehicle: Klucel (hydroxypropylcellulose) (HPC)", "result": "103 % of control"}, {"measurement": "T/C", "setting": "dose: 3.12 mg/kg/injection, schedule: Q01DX009 (ip), vehicle: Klucel (hydroxypropylcellulose) (HPC)", "result": "94 % of control"}, {"measurement": "T/C", "setting": "dose: 6.25 mg/kg/injection, schedule: Q01DX009 (ip), vehicle: Klucel (hydroxypropylcellulose) (HPC)", "result": "98 % of control"}, {"measurement": "T/C", "setting": "dose: 12.5 mg/kg/injection, schedule: Q01DX009 (ip), vehicle: Klucel (hydroxypropylcellulose) (HPC)", "result": "103 % of control"}, {"measurement": "T/C", "setting": "dose: 12.5 mg/kg/injection, schedule: Q04DX002 (ip), vehicle: Klucel (hydroxypropylcellulose) (HPC)", "result": "102 % of control"}, {"measurement": "T/C", "setting": "dose: 25.0 mg/kg/injection, schedule: Q04DX002 (ip), vehicle: Klucel (hydroxypropylcellulose) (HPC)", "result": "105 % of control"}]}
{"smiles": "N#CCc1ccccc1N(C(=O)CCl)C(=O)CCl", "values": [{"measurement": "T/C", "setting": "dose: 100.0 mg/kg/injection, schedule: Q01DX001 (ip), vehicle: saline sonified", "result": "98 % of control"}, {"measurement": "T/C", "setting": "dose: 200.0 mg/kg/injection, schedule: Q01DX001 (ip), vehicle: saline sonified", "result": "103 % of control"}, {"measurement": "T/C", "setting": "dose: 400.0 mg/kg/injection, schedule: Q01DX001 (ip), vehicle: saline sonified", "result": "103 % of control"}]}
{"smiles": "COc1ccc(C)c(CN(C)C)c1", "values": [{"measurement": "T/C", "setting": "[4]", "result": "107 % of control"}, {"measurement": "T/C", "setting": "[5]", "result": "101 % of control"}]}
{"smiles": "CCOc1ccc(C(/C(Cl)=N/O)C(Cl)(Cl)Cl)cc1", "note": "(stereo not given)", "values": [{"measurement": "T/C", "setting": "dose: 12.5 mg/kg/injection, schedule: Q04DX003 (ip), vehicle: acetone", "result": "93 % of control"}, {"measurement": "T/C", "setting": "dose: 25.0 mg/kg/injection, schedule: Q04DX003 (ip), vehicle: acetone", "result": "97 % of control"}, {"measurement": "T/C", "setting": "dose: 50.0 mg/kg/injection, schedule: Q04DX003 (ip), vehicle: acetone", "result": "92 % of control"}]}
{"smiles": "O=C(C[P+](c1ccccc1)(c1ccccc1)c1ccccc1)c1ccc(Br)cc1", "values": [{"measurement": "T/C", "setting": "dose: 50.0 mg/kg/injection, schedule: Q01DX001 (ip), vehicle: other", "result": "100 % of control"}, {"measurement": "T/C", "setting": "dose: 100.0 mg/kg/injection, schedule: Q01DX001 (ip), vehicle: other", "result": "87 % of control"}, {"measurement": "T/C", "setting": "dose: 200.0 mg/kg/injection, schedule: Q01DX001 (ip), vehicle: other", "result": "103 % of control"}, {"measurement": "T/C", "setting": "dose: 400.0 mg/kg/injection, schedule: Q01DX001 (ip), vehicle: other", "result": "105 % of control"}]}
{"smiles": "Cc1ccc(C(c2ccc(C)c(C)c2)C(O)C(O)C(O)CO)cc1C", "note": "(stereo not given)", "values": [{"measurement": "T/C", "setting": "[5]", "result": "94 % of control and 100 % of control"}, {"measurement": "T/C", "setting": "[6]", "result": "102 % of control and 96 % of control"}, {"measurement": "T/C", "setting": "[7]", "result": "97 % of control and 96 % of control"}]}
{"smiles": "c1ccc(C(=NC(c2ccccc2)c2ccccc2)c2ccccc2)cc1", "values": [{"measurement": "T/C", "setting": "[4]", "result": "98 % of control"}, {"measurement": "T/C", "setting": "[5]", "result": "98 % of control"}, {"measurement": "T/C", "setting": "[6]", "result": "96 % of control"}, {"measurement": "T/C", "setting": "[7]", "result": "98 % of control"}]}
{"smiles": "Cc1cc2cc3n(c2nn1)N=C(Cl)CC3", "values": [{"measurement": "T/C", "setting": "dose: 80.0 mg/kg/injection, schedule: Q04DX002 (ip), vehicle: Klucel (hydroxypropylcellulose) (HPC)", "result": "106 % of control"}, {"measurement": "T/C", "setting": "dose: 160.0 mg/kg/injection, schedule: Q04DX002 (ip), vehicle: Klucel (hydroxypropylcellulose) (HPC)", "result": "118 % of control"}, {"measurement": "T/C", "setting": "dose: 320.0 mg/kg/injection, schedule: Q04DX002 (ip), vehicle: Klucel (hydroxypropylcellulose) (HPC)", "result": "168 % of control"}]}
{"smiles": "O=C(Nc1ccccc1)Oc1ccc(Cl)cc1", "values": [{"measurement": "T/C", "setting": "[8]", "result": "97 % of control"}, {"measurement": "T/C", "setting": "[1]", "result": "107 % of control"}, {"measurement": "T/C", "setting": "[9]", "result": "102 % of control"}, {"measurement": "T/C", "setting": "[2]", "result": "96 % of control"}, {"measurement": "T/C", "setting": "[10]", "result": "103 % of control"}, {"measurement": "T/C", "setting": "[3]", "result": "113 % of control"}]}
{"smiles": "CCCCCCCCn1nnnc1-c1nnn(C)n1", "values": [{"measurement": "T/C", "setting": "[8]", "result": "106 % of control"}, {"measurement": "T/C", "setting": "[9]", "result": "104 % of control"}, {"measurement": "T/C", "setting": "[10]", "result": "101 % of control"}]}
